This is an account of results in US20050209278A1, “Piperidinyl- and piperazinyl-sulfonylmethyl hydroxamic acids and their use as protease inhibitors” (priority 2002, published 2005).

One experiment concerns the target T1, MMP-1 (Homo sapiens, UniProt P03956).
T1 construct: made in house; host or cells: MMP-1-transfected HT-1080 cells (spent media)
T1 sequence (P03956 100-469): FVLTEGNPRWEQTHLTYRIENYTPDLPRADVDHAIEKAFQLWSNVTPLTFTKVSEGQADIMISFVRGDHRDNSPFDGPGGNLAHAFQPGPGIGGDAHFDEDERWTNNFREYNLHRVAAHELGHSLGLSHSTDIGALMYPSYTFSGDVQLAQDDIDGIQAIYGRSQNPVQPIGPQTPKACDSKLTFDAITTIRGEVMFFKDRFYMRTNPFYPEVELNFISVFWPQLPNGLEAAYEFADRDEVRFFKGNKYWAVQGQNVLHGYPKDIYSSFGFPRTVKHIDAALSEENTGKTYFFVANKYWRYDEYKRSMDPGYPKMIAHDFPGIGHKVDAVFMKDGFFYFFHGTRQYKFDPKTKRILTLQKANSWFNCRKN
The experiment in a line: In vitro MMP inhibition, Ki determination (fluorogenic substrate II). The conditions noted are these: value outside parentheses; read-out: MMP-1 Ki. The class given is biochemical.

The next experiment has as its target T2, MMP-2 (Homo sapiens, UniProt P08253).
T2 construct: made in house; host or cells: MMP-2-transfected p2AHT2 cells
T2 sequence (P08253 110-660): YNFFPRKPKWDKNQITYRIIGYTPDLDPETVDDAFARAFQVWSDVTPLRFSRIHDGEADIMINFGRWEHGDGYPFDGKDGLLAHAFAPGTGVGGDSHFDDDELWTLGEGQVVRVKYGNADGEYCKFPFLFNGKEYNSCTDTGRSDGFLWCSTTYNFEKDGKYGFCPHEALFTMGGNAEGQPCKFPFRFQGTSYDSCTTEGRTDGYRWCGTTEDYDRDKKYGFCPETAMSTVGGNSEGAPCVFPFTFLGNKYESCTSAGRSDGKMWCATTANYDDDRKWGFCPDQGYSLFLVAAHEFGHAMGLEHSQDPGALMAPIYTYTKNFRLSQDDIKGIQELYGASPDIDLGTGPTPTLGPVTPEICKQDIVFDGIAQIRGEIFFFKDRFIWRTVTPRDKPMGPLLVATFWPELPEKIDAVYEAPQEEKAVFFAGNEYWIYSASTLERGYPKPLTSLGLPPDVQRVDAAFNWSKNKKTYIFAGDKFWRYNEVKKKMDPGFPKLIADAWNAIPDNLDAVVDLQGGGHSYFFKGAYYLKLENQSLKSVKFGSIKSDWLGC
The description is as above. The class given is biochemical. The conditions noted are these: value outside parentheses; read-out: MMP-2 Ki.

Turning to `Cc1cc(N2CCN(S(=O)(=O)C3(C(=O)NO)CCOCC3)CC2)ccc1OC(C)C` [Example 299], the Ki is more than 10000 nM at MMP-1 and 22.5 nM on MMP-2.

As for `CS(=O)(=O)c1ccc(N2CCN(S(=O)(=O)C3(C(=O)NO)CCOCC3)CC2)cc1` [Example 300], the Ki on MMP-1 was more than 10000 nM; on MMP-2, 67.1 nM.

Regarding `CCCCOc1ccc(N2CCN(S(=O)(=O)C3(C(=O)NO)CCN(C4CC4)CC3)CC2)cc1` [Example 301], the values for the Ki at MMP-1 and at MMP-2 were more than 10000 nM and 0.88 nM, respectively.

Consider `C#CCN1CCC(C(=O)NO)(S(=O)(=O)N2CCN(c3ccc(OCCCC)cc3)CC2)CC1` [Example 303], for which the figures for the Ki on MMP-1 and on MMP-2 were more than 10000 nM and 1.68 nM, respectively.

For `CCCCCc1ccc(C2CCN(S(=O)(=O)C3(C(=O)NO)CCOCC3)CC2)nc1` [Example 305], the Ki at MMP-1 is 6700 nM; on MMP-2, 0.407 nM.

Consider `O=C(NO)C1(S(=O)(=O)N2CCC(c3ccc(Br)cn3)CC2)CCOCC1` [Example 306], for which the values for the inhibition constant (Ki) on MMP-1 and on MMP-2 were 602 nM and 0.444 nM, respectively.

As for `CCCCc1ccc(C2CCN(S(=O)(=O)C3(C(=O)NO)CCOCC3)CC2)nc1` [Example 307], the values for the inhibition constant (Ki) at MMP-1 and on MMP-2 were 6810 nM and 0.505 nM, respectively.

`O=C(NO)C1(S(=O)(=O)N2CCC(c3ccc(-c4ccc(F)cc4F)cn3)CC2)CCOCC1` [Example 308]: the Ki on MMP-1 turned out to be 6780 nM; on MMP-2, 6.36 nM.

`COCCN1CCC(C(=O)NO)(S(=O)(=O)N2CCC(c3ccc(CCC(F)(F)F)cc3)CC2)CC1` [Example 309]: the results for the inhibitory constant (Ki) at MMP-1 and on MMP-2 were more than 10000 nM and 0.328 nM, respectively.

As to `COCCN1CCC(C(=O)NO)(S(=O)(=O)N2CCC(c3ccc(CCCC(F)(F)F)cc3)CC2)CC1` [Example 310], the results for the inhibition constant (Ki) at MMP-1 and at MMP-2 were more than 10000 nM and 0.919 nM, respectively.

With `COCCN1CCC(C(=O)NO)(S(=O)(=O)N2CCC(c3ncc(CC(C)C)s3)CC2)CC1` [Example 311], the Ki was more than 10000 nM on MMP-1 and 103 nM at MMP-2.

On to `COCCN1CCC(C(=O)NO)(S(=O)(=O)N2CCC(c3ccc(CCC(F)(F)C(F)(F)F)cc3)CC2)CC1` [Example 312], for which the figures for the Ki on MMP-1 and at MMP-2 were more than 10000 nM and 0.52 nM, respectively.
